According to patent publication US9108903B2, “Amides as modulators of sodium channels” (VERTEX PHARMACEUTICALS INCORPORATED, priority 2013, dated 2015):

These compounds were tested against human Nav1.8 (Homo sapiens (Human), UniProt Q9Y5Y9) (assay: E-VIPR optical membrane potential assay with electrical stimulation). Details: HEK cells expressing human Nav1.8.
Assay type: cell-based
Excerpt: Assays for Detecting and Measuring NaV Inhibition Properties of Compounds E-VIPR Optical Membrane Potential Assay Method with Electrical Stimulation
Sodium channels are voltage-dependent proteins that can be activated by inducing membrane voltage changes by applying electric fields. The electrical stimulation instrument and methods of use are described in Ion Channel Assay Methods PCT/US01/21652, herein incorporated by reference and are referred to as E-VIPR. The instrument comprises a microtiter plate handler, an optical system for exciting the coumarin dye while simultaneously recording the coumarin and oxonol emissions, a waveform generator, a current- or voltage-controlled amplifier, and a device for inserting electrodes in well. Under integrated computer control, this instrument passes user-programmed electrical stimulus protocols to cells within the wells of the microtiter plate.
24 hours before the assay on E-VIPR, HEK cells expressing human Nav1.8 were seeded in 384-well poly-lysine coated plates at 15,000-20,000 cells per well. HEK cells were grown in media (exact composition is specific to each cell type and NaV subtype) supplemented with 10% FBS (Fetal Bovine Serum, qualified; GibcoBRL #16140-071) and 1% Pen-Strep (Penicillin-Streptomycin; GibcoBRL #15140-122). Cells were grown in vented cap flasks, in 90% humidity and 5% CO2.
100 mg/mL Pluronic F-127 (Sigma #P2443), in dry DMSO
Compound Plates: 384-well round bottom plate, e.g. Corning 384-well Polypropylene Round Bottom #3656
Cell Plates: 384-well tissue culture treated plate, e.g. Greiner #781091-1B
Bath1 buffer: Glucose 10 mM (1.8 g/L), Magnesium Chloride (Anhydrous), 1 mM (0.095 g/L), Calcium Chloride, 2 mM (0.222 g/L), HEPES 10 mM (2.38 g/L), Potassium Chloride, 4.5 mM (0.335 g/L), Sodium Chloride 160 mM (9.35 g/L).
Hexyl Dye Solution: Bath1 Buffer+0.5% β-cyclodextrin (make this prior to use, Sigma #C4767), 8 μM CC2-DMPE+2.5 μM DiSBAC6(3). To make the solution added volume of 10% Pluronic F127 stock equal to volumes of CC2-DMPE+DiSBAC6(3). The order of preparation was first mix Pluronic and CC2-DMPE, then added DiSBAC6(3) while vortexing, then added Bath1+β-Cyclodextrin.
1) Pre-spotted compounds (in neat DMSO) into compound plates. Vehicle control (neat DMSO), the positive control (20 mM DMSO stock tetracaine, 125 μM final in assay) and test compounds were added to each well at 160× desired final concentration in neat DMSO. Final compound plate volume was 80 μL (80-fold intermediate dilution from 1 μL DMSO spot; 160-fold final dilution after transfer to cell plate). Final DMSO concentration for all wells in assay was 0.625%.
2) Prepared Hexyl Dye Solution.
3) Prepared cell plates. On the day of the assay, medium was aspirated and cells were washed three times with 100 μL of Bath1 Solution, maintaining 25 μL residual volume in each well.
4) Dispensed 25 μL per well of Hexyl Dye Solution into cell plates. Incubated for 20-35 minutes at room temp or ambient conditions.
5) Dispensed 80 μL per well of Bath1 into compound plates. Acid Yellow-17 (1 mM) was added and Potassium Chloride was altered from 4.5 to 20 mM depending on the NaV subtype and assay sensitivity.
6) Washed cell plates three times with 100 μL per well of Bath1, leaving 25 μL of residual volume. Then transfered 25 uL per well from Compound Plates to Cell Plates. Incubated for 20-35 minutes at room temp/ambient condition.
7) Read Plate on E-VIPR. Used the current-controlled amplifier to deliver stimulation wave pulses for 10 seconds and a scan rate of 200 Hz. A pre-stimulus recording was performed for 0.5 seconds to obtain the un-stimulated intensities baseline. The stimulatory waveform was followed by 0.5 seconds of post-stimulation recording to examine the relaxation to the resting state.
Data was analyzed and reported as normalized ratios of emission intensities measured in the 460 nm and 580 nm channels. The response as a function of time was reported as the ratios obtained using the following formula: […]

Sequence of human Nav1.8 (Q9Y5Y9 whole entry): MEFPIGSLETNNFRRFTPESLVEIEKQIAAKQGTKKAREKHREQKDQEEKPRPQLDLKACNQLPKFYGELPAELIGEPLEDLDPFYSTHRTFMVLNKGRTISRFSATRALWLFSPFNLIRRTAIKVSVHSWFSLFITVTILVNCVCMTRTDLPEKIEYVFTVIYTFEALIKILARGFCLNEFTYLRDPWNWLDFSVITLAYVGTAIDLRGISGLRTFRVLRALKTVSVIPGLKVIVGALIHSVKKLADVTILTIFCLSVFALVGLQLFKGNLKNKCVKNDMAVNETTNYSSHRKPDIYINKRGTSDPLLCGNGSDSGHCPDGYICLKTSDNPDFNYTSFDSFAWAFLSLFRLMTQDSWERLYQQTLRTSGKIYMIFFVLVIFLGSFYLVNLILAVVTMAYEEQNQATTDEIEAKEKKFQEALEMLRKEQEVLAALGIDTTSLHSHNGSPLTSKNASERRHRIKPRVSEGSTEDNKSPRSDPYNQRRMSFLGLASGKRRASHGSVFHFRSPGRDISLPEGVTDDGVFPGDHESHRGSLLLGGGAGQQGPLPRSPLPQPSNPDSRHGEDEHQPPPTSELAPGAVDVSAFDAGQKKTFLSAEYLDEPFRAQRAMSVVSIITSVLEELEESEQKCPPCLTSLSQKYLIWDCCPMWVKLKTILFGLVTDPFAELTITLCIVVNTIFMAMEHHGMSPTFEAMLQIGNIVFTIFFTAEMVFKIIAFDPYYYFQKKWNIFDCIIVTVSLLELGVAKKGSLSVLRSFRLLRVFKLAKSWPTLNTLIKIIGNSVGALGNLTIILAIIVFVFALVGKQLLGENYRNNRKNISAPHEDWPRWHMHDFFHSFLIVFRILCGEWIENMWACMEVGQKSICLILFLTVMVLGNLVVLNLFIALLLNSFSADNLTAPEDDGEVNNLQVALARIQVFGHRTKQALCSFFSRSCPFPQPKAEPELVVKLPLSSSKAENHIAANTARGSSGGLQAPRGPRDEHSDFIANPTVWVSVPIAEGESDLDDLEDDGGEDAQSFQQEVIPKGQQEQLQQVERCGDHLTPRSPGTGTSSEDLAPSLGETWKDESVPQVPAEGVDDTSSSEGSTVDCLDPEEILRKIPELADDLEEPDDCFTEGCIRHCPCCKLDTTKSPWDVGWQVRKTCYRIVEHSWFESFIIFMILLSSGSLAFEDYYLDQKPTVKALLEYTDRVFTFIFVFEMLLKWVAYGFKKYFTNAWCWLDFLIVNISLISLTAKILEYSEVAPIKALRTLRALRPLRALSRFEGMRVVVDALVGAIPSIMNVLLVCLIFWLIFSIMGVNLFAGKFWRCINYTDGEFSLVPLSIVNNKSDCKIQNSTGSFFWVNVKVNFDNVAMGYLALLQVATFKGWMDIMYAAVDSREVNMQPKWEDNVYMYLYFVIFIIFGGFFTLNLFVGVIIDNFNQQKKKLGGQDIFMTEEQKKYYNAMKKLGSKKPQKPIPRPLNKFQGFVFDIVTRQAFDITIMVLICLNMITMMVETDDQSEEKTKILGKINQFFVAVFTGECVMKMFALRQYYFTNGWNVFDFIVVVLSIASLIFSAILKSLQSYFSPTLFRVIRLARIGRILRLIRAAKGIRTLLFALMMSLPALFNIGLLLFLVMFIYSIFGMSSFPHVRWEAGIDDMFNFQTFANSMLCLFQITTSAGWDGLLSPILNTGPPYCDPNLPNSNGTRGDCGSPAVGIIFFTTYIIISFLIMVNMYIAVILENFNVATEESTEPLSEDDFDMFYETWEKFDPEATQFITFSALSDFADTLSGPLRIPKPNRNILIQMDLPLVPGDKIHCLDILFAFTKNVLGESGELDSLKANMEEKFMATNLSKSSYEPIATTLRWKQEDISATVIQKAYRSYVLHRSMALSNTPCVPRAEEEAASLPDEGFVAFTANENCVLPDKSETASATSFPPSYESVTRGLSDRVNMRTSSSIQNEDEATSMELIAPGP

Q: For COc1ccc(Oc2cc(Cl)c(Cl)cc2C(=O)Nc2ccc(C(=O)O)cc2)c(Cl)c1 [Compound 25, 4-(4,5-dichloro-2-(2-chloro-4-methoxyphenoxy)benzamido)benzoic acid], which IC50 is on record?
A: 92 nM

Q: COc1ccc(Oc2cc(C(F)(F)F)cc(C(F)(F)F)c2C(=O)Nc2ccc(C(=O)O)nc2)cc1 [Compound 46, 5-(2-(4-methoxyphenoxy)-4,6-bis(trifluoromethyl)benzamido)picolinic acid] was tested. Which IC50 did it give?
A: 66 nM

Q: For CC(C)Oc1ccccc1Oc1ccc(C(F)(F)F)cc1C(=O)Nc1ccc(C(=O)O)nc1 [Compound 64, 5-(2-(2-isopropoxyphenoxy)-5-(trifluoromethyl)benzamido)picolinic acid], which IC50 is on record?
A: 755 nM

Q: Cc1cc(F)ccc1Oc1cc(C(F)(F)C(F)(F)F)ccc1C(=O)Nc1ccc(C(=O)O)cc1 [Compound 3, 4-(2-(4-fluoro-2-methylphenoxy)-4-(perfluoroethyl)benzamido)benzoic acid] was tested. Which IC50 did it give?
A: 22 nM

Q: For O=C(O)c1ccc(NC(=O)c2cc(Cl)c(Cl)cc2Oc2ccccc2)cn1 [Compound 33, 5-(4,5-dichloro-2-phenoxybenzamido)picolinic acid], which IC50 is on record?
A: 190 nM

Q: For O=C(O)c1ccc(NC(=O)c2cc(Cl)c(Cl)cc2Oc2ccc(F)cc2)cc1 [Compound 13, 4-(4,5-dichloro-2-(4-fluorophenoxy)benzamido)benzoic acid], which IC50 is on record?
A: 58 nM

Q: Which IC50 does the source give for O=C(O)c1ccc(NC(=O)c2cc(Cl)c(Cl)cc2Oc2ccc(OC(F)(F)F)cc2)cc1 [Compound 26, 4-(4,5-dichloro-2-(4-(trifluoromethoxy)phenoxy)benzamido)benzoic acid] here?
A: 24 nM

Q: With Cc1cc(Cl)ccc1Oc1cc(Cl)c(Cl)cc1C(=O)Nc1ccc(C(=O)O)cc1 [Compound 20, 4-(4,5-dichloro-2-(4-chloro-2-methylphenoxy)benzamido)benzoic acid] as the compound, how does the IC50 read?
A: 24 nM

Q: Which IC50 does the source give for COc1ccc(Oc2ccc(C(F)(F)F)cc2C(=O)Nc2ccc(C(=O)O)nc2)c(C)c1 [Compound 67, 5-(2-(4-methoxy-2-methylphenoxy)-5-(trifluoromethyl)benzamido)picolinic acid] here?
A: 79 nM

Q: With COc1ccc(Oc2cc(Cl)c(Cl)cc2C(=O)Nc2ccc(C(=O)O)cc2)c(OC)c1 [Compound 21, 4-(4,5-dichloro-2-(2,4-dimethoxyphenoxy)benzamido)benzoic acid] as the compound, how does the IC50 read?
A: 27 nM

Q: For COc1ccccc1Oc1cc(C(F)(F)F)cc(C(F)(F)F)c1C(=O)Nc1ccc(C(=O)O)nc1 [Compound 45, 5-(2-(2-methoxyphenoxy)-4,6-bis(trifluoromethyl)benzamido)picolinic acid], which IC50 is on record?
A: 64 nM

Q: O=C(O)c1ccc(NC(=O)c2cc(C(F)(F)F)ccc2Oc2ccc(F)cc2)cn1 [Compound 71, 5-(2-(4-fluorophenoxy)-5-(trifluoromethyl)benzamido)picolinic acid] was tested. Which IC50 did it give?
A: 285 nM

Q: With O=C(O)c1ccc(NC(=O)c2cc(C(F)(F)F)ccc2Oc2ccc(F)cc2Cl)cn1 [Compound 58, 5-(2-(2-chloro-4-fluorophenoxy)-5-(trifluoromethyl)benzamido)picolinic acid] as the compound, how does the IC50 read?
A: 80 nM

Q: COc1cc(F)ccc1Oc1cc(Cl)c(Cl)cc1C(=O)Nc1ccc(C(=O)O)nc1 [Compound 51, 5-(4,5-dichloro-2-(4-fluoro-2-methoxyphenoxy)benzamido)picolinic acid] was tested. Which IC50 did it give?
A: 9 nM

Q: COc1cc(F)ccc1Oc1cc(C(F)(F)F)cc(C(F)(F)F)c1C(=O)Nc1ccc(C(=O)O)cc1 [Compound 10, 4-(2-(4-fluoro-2-methoxyphenoxy)-4,6-bis(trifluoromethyl)benzamido)benzoic acid] was tested. Which IC50 did it give?
A: 37 nM

Q: O=C(O)c1ccc(NC(=O)c2ccc(C(F)(F)C(F)(F)F)cc2Oc2ccc(F)cc2Cl)cc1 [Compound 1, 4-(2-(2-chloro-4-fluorophenoxy)-4-(perfluoroethyl)benzamido)benzoic acid] was tested. Which IC50 did it give?
A: 17 nM

Q: For O=C(O)c1ccc(NC(=O)c2cc(Cl)c(Cl)cc2Oc2ccc(F)cc2)cn1 [Compound 30, 5-(4,5-dichloro-2-(4-fluorophenoxy)benzamido)picolinic acid], which IC50 is on record?
A: 34 nM

Q: Which IC50 does the source give for COc1cc(Cl)ccc1Oc1cc(Cl)c(Cl)cc1C(=O)Nc1ccc(C(=O)O)cc1 [Compound 18, 4-(4,5-dichloro-2-(4-chloro-2-methoxyphenoxy)benzamido)benzoic acid] here?
A: 11 nM

Q: How did the IC50 turn out when Cc1cc(Cl)ccc1Oc1ccc(C(F)(F)F)cc1C(=O)Nc1ccc(C(=O)O)nc1 [Compound 61, 5-(2-(4-chloro-2-methylphenoxy)-5-(trifluoromethyl)benzamido)picolinic acid] was run?
A: 145 nM

Q: With O=C(O)c1ccc(NC(=O)c2c(Oc3ccc(F)cc3)cc(C(F)(F)F)cc2C(F)(F)F)cc1 [Compound 11, 4-(2-(4-fluorophenoxy)-4,6-bis(trifluoromethyl)benzamido)benzoic acid] as the compound, how does the IC50 read?
A: 305 nM

Q: For O=C(O)c1ccc(NC(=O)c2ccc(C(F)(F)F)cc2Oc2ccc(F)cc2)cn1 [Compound 56, 5-(2-(4-fluorophenoxy)-4-(trifluoromethyl)benzamido)picolinic acid], which IC50 is on record?
A: 250 nM

Q: How did the IC50 turn out when O=C(O)c1ccc(NC(=O)c2cc(C(F)(F)F)ccc2Oc2ccccc2)cn1 [Compound 70, 5-(2-phenoxy-5-(trifluoromethyl)benzamido)picolinic acid] was run?
A: 985 nM

Q: Which IC50 does the source give for Cc1cc(F)ccc1Oc1ccc(C(F)(F)F)cc1C(=O)Nc1ccc(C(=O)O)nc1 [Compound 75, 5-(2-(4-fluoro-2-methylphenoxy)-5-(trifluoromethyl)benzamido)picolinic acid] here?
A: 108 nM

Q: O=C(O)c1ccc(NC(=O)c2ccc(C(F)(F)C(F)(F)F)cc2Oc2ccc(F)cc2)cn1 [Compound 73, 5-(2-(4-fluorophenoxy)-4-(perfluoroethyl)benzamido)picolinic acid] was tested. Which IC50 did it give?
A: 110 nM

Q: How did the IC50 turn out when O=C(O)c1ccc(NC(=O)c2cc(Cl)c(Cl)cc2Oc2ccc(F)cc2F)cn1 [Compound 42, 5-(4,5-dichloro-2-(2,4-difluorophenoxy)benzamido)picolinic acid] was run?
A: 31 nM

Q: With COc1cc(F)ccc1Oc1ccc(C(F)(F)F)cc1C(=O)Nc1ccc(C(=O)O)nc1 [Compound 57, 5-(2-(4-fluoro-2-methoxyphenoxy)-5-(trifluoromethyl)benzamido)picolinic acid] as the compound, how does the IC50 read?
A: 96 nM

Q: Which IC50 does the source give for COc1ccc(Oc2cc(Cl)c(Cl)cc2C(=O)Nc2ccc(C(=O)O)nc2)c(F)c1 [Compound 34, 5-(4,5-dichloro-2-(2-fluoro-4-methoxyphenoxy)benzamido)picolinic acid] here?
A: 52 nM

Q: COc1cc(F)ccc1Oc1cc(C(F)(F)C(F)(F)F)ccc1C(=O)Nc1ccc(C(=O)O)cc1 [Compound 27, 4-(2-(4-fluoro-2-methoxyphenoxy)-4-(perfluoroethyl)benzamido)benzoic acid] was tested. Which IC50 did it give?
A: 20 nM

Q: How did the IC50 turn out when COc1cc(Cl)ccc1Oc1ccc(C(F)(F)F)cc1C(=O)Nc1ccc(C(=O)O)nc1 [Compound 66, 5-(2-(4-chloro-2-methoxyphenoxy)-5-(trifluoromethyl)benzamido)picolinic acid] was run?
A: 68 nM

Q: With O=C(O)c1ccc(NC(=O)c2ccc(C(F)(F)F)cc2Oc2ccc(F)cc2Cl)cc1 [Compound 4, 4-(2-(2-chloro-4-fluorophenoxy)-4-(trifluoromethyl)benzamido)benzoic acid] as the compound, how does the IC50 read?
A: 58 nM

Q: How did the IC50 turn out when Cc1cc(F)ccc1Oc1cc(Cl)c(Cl)cc1C(=O)Nc1ccc(C(=O)O)nc1 [Compound 32, 5-(4,5-dichloro-2-(4-fluoro-2-methylphenoxy)benzamido)picolinic acid] was run?
A: 11 nM

Q: COc1ccccc1Oc1ccc(C(F)(F)F)cc1C(=O)Nc1ccc(C(=O)O)nc1 [Compound 62, 5-(2-(2-methoxyphenoxy)-5-(trifluoromethyl)benzamido)picolinic acid] was tested. Which IC50 did it give?
A: 370 nM
